CN(C/C=C/C#CC(C)(C)C)Cc1cccc2ccccc12.Cl
solubility (mole fraction)
Details | 283.15 K | 288.15 K | 293.15 K | 298.15 K | 303.15 K | 308.15 K | 313.15 K | 318.15 K | 323.15 K
in DMSO | – | – | 0.0199 | 0.0226 | 0.0252 | 0.0284 | 0.0319 | 0.0354 | 0.0401
in acetonitrile | 0.0013 | 0.00153 | 0.00179 | 0.00213 | 0.00254 | 0.00304 | 0.00377 | 0.00455 | 0.00532
in cyclohexanol | – | – | – | – | 0.0381 | 0.048 | 0.0556 | 0.0654 | 0.0774
in ethanol | 0.0198 | 0.0222 | 0.0245 | 0.0298 | 0.0342 | 0.0414 | 0.0493 | 0.0572 | 0.0678
in isobutanol | 0.0101 | 0.0128 | 0.0159 | 0.0213 | 0.0276 | 0.0354 | 0.045 | 0.0559 | 0.0693
in isooctanol | 0.00196 | 0.00403 | 0.00498 | 0.00649 | 0.00867 | 0.0109 | 0.0143 | 0.0178 | 0.0221
in isopentanol | 0.0073 | 0.00942 | 0.0118 | 0.0149 | 0.0189 | 0.0242 | 0.0298 | 0.0389 | 0.0493
in isopropanol | 0.0031 | 0.00391 | 0.00487 | 0.00627 | 0.00831 | 0.0106 | 0.0144 | 0.0183 | 0.0245
in n-butanol | 0.0123 | 0.0168 | 0.0217 | 0.0251 | 0.0313 | 0.0377 | 0.0466 | 0.0568 | 0.0685
in n-hexanol | 0.00683 | 0.00916 | 0.0115 | 0.0148 | 0.0185 | 0.0229 | 0.0291 | 0.0373 | 0.0469
in n-pentanol | 0.0158 | 0.0208 | 0.0255 | 0.0304 | 0.0357 | 0.0428 | 0.0511 | 0.0601 | 0.0697
in n-propanol | 0.0194 | 0.0214 | 0.0233 | 0.027 | 0.0351 | 0.0427 | 0.0519 | 0.0615 | 0.0735
in sec-butanol | 0.0037 | 0.0047 | 0.00608 | 0.0077 | 0.00999 | 0.0133 | 0.0176 | 0.0227 | 0.0288
